Values joined by “and” are separate entries in the source; they are usually repeats but may differ in a detail not shown here. Identical values can stand only once. Like-named read-outs stand apart in the source and are kept apart here.
Columns and labels:
[1] = molecular target: T1, endogenous human UII receptor (Homo sapiens, UniProt Q9UKP6); test: Human Radioligand Binding Assay ((^125I)-U-II binding to human skeletal muscle myoblasts)
T1 sequence (Q9UKP6 1-389): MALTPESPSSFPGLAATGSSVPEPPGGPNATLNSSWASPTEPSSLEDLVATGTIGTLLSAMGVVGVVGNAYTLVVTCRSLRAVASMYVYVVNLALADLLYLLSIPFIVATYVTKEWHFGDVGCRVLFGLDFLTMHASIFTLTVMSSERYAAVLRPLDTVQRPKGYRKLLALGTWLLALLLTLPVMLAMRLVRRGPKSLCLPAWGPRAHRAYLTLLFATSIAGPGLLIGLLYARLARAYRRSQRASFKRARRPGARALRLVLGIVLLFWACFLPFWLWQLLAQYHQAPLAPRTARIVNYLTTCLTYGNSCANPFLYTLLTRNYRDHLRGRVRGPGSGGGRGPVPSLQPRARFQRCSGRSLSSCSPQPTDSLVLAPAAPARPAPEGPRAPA

[2] = molecular target: T2, rat GPR14 (U-II receptor) (Rattus norvegicus, UniProt P49684); test: Rat UII Calcium Mobilization FLIPR Assay; assay type: cell-based; conditions: for inhibition at 10 µM / inhibition at 50 µM: CHO, 5 min, agonist-induced Ca2+ mobilization (FLIPR), CHO cells with rat UII receptor; for inhibition at 10 µM: 10 μM compound, read-out: % I @ 10; for inhibition at 50 µM: 50 μM compound, read-out: % I @ 50
T2 construct: expressed in transfected cells
T2 sequence (P49684 1-386): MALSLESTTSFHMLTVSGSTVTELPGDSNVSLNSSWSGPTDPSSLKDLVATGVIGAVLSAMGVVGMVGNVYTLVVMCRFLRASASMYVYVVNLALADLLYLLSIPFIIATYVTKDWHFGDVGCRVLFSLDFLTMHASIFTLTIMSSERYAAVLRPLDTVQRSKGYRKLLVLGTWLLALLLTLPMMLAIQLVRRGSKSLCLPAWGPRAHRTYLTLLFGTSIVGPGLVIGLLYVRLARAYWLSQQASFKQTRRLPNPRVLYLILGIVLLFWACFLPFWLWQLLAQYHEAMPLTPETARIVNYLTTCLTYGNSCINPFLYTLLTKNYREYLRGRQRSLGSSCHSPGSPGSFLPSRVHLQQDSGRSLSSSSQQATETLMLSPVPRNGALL
Excerpt: To derive these cells, the complete coding sequence of rat U-II (Genbank Accession No. U32673) was amplified by nested PCR from rat heart marathon-Ready cDNA. […] The PCR products were cloned into pcDNA3 (Invitrogen) digested with EcoR I and Xba I. Clones containing rat U-II receptor were verified by complete sequencing of the U-II receptor insert to ensure a lack of PCR-introduced errors. The constructed vector was transfected into CHO cells by using lipofectamine (GIBCO BRL). CHO cells with high expression of rat U-II receptor were selected and established as stable cell lines by using G418. CHO cells were seeded at 25,000 cells per well into 96-well, black-wall, clear-bottom microtiter plates 24 h before assay. Cells in culture media (DMEM/F12 containing 15 mM HEPES, L-glutamine, pyridoxine hydrochloride; 10% fetal bovine serum; 1 mg/mL G418 sulfate; antibiotic-antimycotic; pH 7.4) were loaded with proprietary dye, from the FLIPR Calcium Assay Kit (Molecular Devices), prepared in assay buffer (Hanks Balanced Salts Solution, 20 mM HEPES, 0.1% BSA, 2.5 mM probenecid, pH 7.4), and incubated for 1 h at 37° C. Calcium mobilization determinations were performed at room temperature (23° C.).

[3] = Inhibition of human UII binding to human skeletal muscle myoblasts containing endogenous human UII receptor
[4] = Inhibition of Acetyl-cyclic[Cys-Phe-Trp-Lys-(2-Nal)-Cys]-NH2 induced Ca2+ mobilization (FLIPR) in CHO cells transfected with rat UII receptor, read-out: IC50
[5] = average value for the compound tested, read-out: Rat UII FLIPR Average IC50

SMILES | Ki [1, 3] [nM] | inhibition at 10 µM [2] [%] | inhibition at 50 µM [2] [%] | IC50 [2, 4] | Ki [1] [nM] | IC50 [2, 5] [nM]
COc1ccc(CN2C(=O)c3cccc(N4CCN([C@H](C)c5ccccc5)CC4)c3C2=O)cc1OC [Cpd 1, 2-(3,4-dimethoxy-benzyl)-4-[4-(1R)-(1-phenyl-ethyl)-piperazin-1-yl]-isoindole-1,3-dione] | 570 | 99 | 99 | 46 nM and 84 nM |  | 
COc1ccc(C(C)N2C(=O)c3cccc(N4CCN([C@H](C)c5ccccc5)CC4)c3C2=O)cc1OC (stereo partly drawn) [Cpd 2, 2-[1-(3,4-dimethoxy-phenyl)-ethyl]-4-[4-(1R)-(1-phenyl-ethyl)-piperazin-1-yl]-isoindole-1,3-dione] | 310 | 101 | 103 | 70 nM |  | 
COc1ccc([C@H](C)N2C(=O)c3cccc(N4CCN([C@H](C)c5ccccc5)CC4)c3C2=O)cc1OC [Cpd 3, 2-[(S)-1-(3,4-dimethoxy-phenyl)-ethyl]-4-[4-(1R)-(1-phenyl-ethyl)-piperazin-1-yl]-isoindole-1,3-dione] | 160 | 100 | 101 | 130 nM |  | 
COc1ccc([C@@H](C)N2C(=O)c3cccc(N4CCN([C@H](C)c5ccccc5)CC4)c3C2=O)cc1OC [Cpd 4, (R)-2-[1-(3,4-dimethoxy-phenyl)-ethyl]-4-[4-(1R)-(1-phenyl-ethyl)-piperazin-1-yl]-isoindole-1,3-dione] | 230 | 100 | 100 | 150 nM |  | 
COc1ccc(CN2C(=O)c3cccc(N4CCN(Cc5ccccc5)CC4)c3C2=O)cc1OC [Cpd 5, 4-(4-benzyl-piperazin-1-yl)-2-(3,4-dimethoxy-benzyl)-isoindole-1,3-dione] |  | 99 | 99 | 151 nM | 1500 | 
COc1ccc(CN2C(=O)c3cccc(N4CCN(C(C)c5ccccc5)CC4)c3C2=O)cc1OC (centres unmarked) [Cpd 6, 2-(3,4-dimethoxy-benzyl)-4-[4-(1-phenyl-ethyl)-piperazin-1-yl]-isoindole-1,3-dione] |  | 103 | 102 | 160 nM | 1200 | 
COc1ccc(CN2C(=O)c3cccc(N4CC5CCC(C4)N5Cc4ccccc4)c3C2=O)cc1OC [Cpd 7, 4-(8-benzyl-3,8-diaza-bicyclo[3.2.1]oct-3-yl)-2-(3,4-dimethoxy-benzyl)-isoindole-1,3-dione] |  | 89 |  | 220 nM and 180 nM | 200 | 
CCC(c1ccc(OC)c(OC)c1)N1C(=O)c2cccc(N3CCN([C@H](C)c4ccccc4)CC3)c2C1=O (stereo partly drawn) [Cpd 8, 2-[1-(3,4-dimethoxy-phenyl)-propyl]-4-[4-(1R)-(1-phenyl-ethyl)-piperazin-1-yl]-isoindole-1,3-dione] | 310 | 100 | 100 | 180 nM |  | 
COc1ccc(CN2C(=O)c3c(Cl)ccc(N4CC5CCC(C4)N5Cc4ccccc4)c3C2=O)cc1OC [Cpd 9, 4-(8-benzyl-3,8-diaza-bicyclo[3.2.1]oct-3-yl)-7-chloro-2-(3,4-dimethoxy-benzyl)-isoindole-1,3-dione] |  | 91 | 81 | 190 nM | 660 | 
COc1ccc(CN2C(=O)c3cccc(N4CCN(Cc5ccc(F)cc5)CC4)c3C2=O)cc1OC [Cpd 12, 2-(3,4-dimethoxy-benzyl)-4-[4-(4-fluoro-benzyl)-piperazin-1-yl]-isoindole-1,3-dione] |  |  |  | 2800 nM and 370 nM | 4500 | 
CCC(c1ccccc1)N1CCN(c2cccc3c2C(=O)N(Cc2ccc(OC)c(OC)c2)C3=O)CC1 (centres unmarked) [Cpd 13, 2-(3,4-dimethoxy-benzyl)-4-[4-(1-phenyl-propyl)-piperazin-1-yl]-isoindole-1,3-dione] |  | 95 | 99 | 410 nM | 4000 | 
COc1cc(CN2C(=O)c3cccc(N4CCN([C@H](C)c5ccccc5)CC4)c3C2=O)ccc1O [Cpd 15, 2-(4-hydroxy-3-methoxy-benzyl)-4-[4-(1R)-(1-phenyl-ethyl)-piperazin-1-yl]-isoindole-1,3-dione] |  | 100 | 100 | 820 nM | 5200 | 
COc1ccc(C(CCCNS(=O)(=O)c2ccc(Br)s2)N2C(=O)c3cccc(N4CCN([C@H](C)c5ccccc5)CC4)c3C2=O)cc1OC (stereo partly drawn) [Cpd 100, 5-bromo-thiophene-2-sulfonic acid (4-(3,4-dimethoxy-phenyl)-4-{1,3-dioxo-4-[4-(1R)-(1-phenyl-ethyl)-piperazin-1-yl]-1,3-dihydro-isoindol-2-yl}-butyl)-amide] |  |  |  |  |  | 570
COc1ccc(C(CCCNS(=O)(=O)C=Cc2ccccc2)N2C(=O)c3cccc(N4CCN([C@H](C)c5ccccc5)CC4)c3C2=O)cc1OC (stereo partly drawn) [Cpd 111, 2-phenyl-ethenesulfonic acid (4-(3,4-dimethoxy-phenyl)-4-{1,3-dioxo-4-[4-(1R)-(1-phenyl-ethyl)-piperazin-1-yl]-1,3-dihydro-isoindol-2-yl}-butyl)-amide] |  |  |  |  |  | 150
COc1ccc(C(CCCNS(=O)(=O)c2cc(Cl)sc2Cl)N2C(=O)c3cccc(N4CCN([C@H](C)c5ccccc5)CC4)c3C2=O)cc1OC (stereo partly drawn) [Cpd 113, 2,5-dichloro-thiophene-3-sulfonic acid (4-(3,4-dimethoxy-phenyl)-4-{1,3-dioxo-4-[4-(1R)-(1-phenyl-ethyl)-piperazin-1-yl]-1,3-dihydro-isoindol-2-yl}-butyl)-amide] |  |  |  |  |  | 2600
COc1ccc(C(CCCNS(=O)(=O)c2csc3ccccc23)N2C(=O)c3cccc(N4CCN([C@H](C)c5ccccc5)CC4)c3C2=O)cc1OC (stereo partly drawn) [Cpd 116, benzo[b]thiophene-3-sulfonic acid (4-(3,4-dimethoxy-phenyl)-4-{1,3-dioxo-4-[4-(1R)-(1-phenyl-ethyl)-piperazin-1-yl]-1,3-dihydro-isoindol-2-yl}-butyl)-amide] |  |  |  |  |  | 1400
COc1ccc(C(CCCNC(=O)Nc2cccs2)N2C(=O)c3cccc(N4CCN([C@H](C)c5ccccc5)CC4)c3C2=O)cc1OC (stereo partly drawn) [Cpd 120, 1-(4-(3,4-dimethoxy-phenyl)-4-{1,3-dioxo-4-[4-(1R)-(1-phenyl-ethyl)-piperazin-1-yl]-1,3-dihydro-isoindol-2-yl}-butyl)-3-thiophen-2-yl-urea] |  |  |  |  |  | 310
COc1ccc(C(CCNC(=O)Nc2cccs2)N2C(=O)c3cccc(N4CCN([C@H](C)c5ccccc5)CC4)c3C2=O)cc1OC (stereo partly drawn) [Cpd 121, 1-(3-(3,4-dimethoxy-phenyl)-3-{1,3-dioxo-4-[4-(1R)-(1-phenyl-ethyl)-piperazin-1-yl]-1,3-dihydro-isoindol-2-yl}-propyl)-3-thiophen-2-yl-urea] |  |  |  |  |  | 270
COc1ccc([C@@H](CCCNS(=O)(=O)c2sc3ccc(F)cc3c2C)N2C(=O)c3cccc(N4CCN([C@H](C)c5ccccc5)CC4)c3C2=O)cc1OC [Cpd 137, (R)-5-fluoro-3-methyl-benzo[b]thiophene-2-sulfonic acid (4-(3,4-dimethoxy-phenyl)-4-{1,3-dioxo-4-[4-(1R)-(1-phenyl-ethyl)-piperazin-1-yl]-1,3-dihydro-isoindol-2-yl}-butyl)-amide] |  |  |  |  |  | 2200
COc1ccc([C@@H](CCCNS(N)(=O)=O)N2C(=O)c3cccc(N4CCN([C@H](C)c5ccccc5)CC4)c3C2=O)cc1OC [Cpd 141, (R)-N′-[(4-(3,4-dimethoxy-phenyl)-4-{1,3-dioxo-4-[4-(1R)-(1-phenyl-ethyl)-piperazin-1-yl]-1,3-dihydro-isoindol-2-yl}-butyl)]-sulfamide] |  |  |  |  | 17 | 

From patent US8193191B2, “Urotensin II receptor antagonists” (Janssen Pharmaceutica N.V., priority 2006, dated 2012)
